Assay results published in US11420958B2, “Aryl and heteroaryl substituted indole compounds” (BRISTOL-MYERS SQUIBB COMPANY, priority 2017, dated 2022).

Experiments:
Assay type in all cases: cell-based
human TLR9 = human TLR9 (Homo sapiens (Human), UniProt Q9NR96); assay: TLR9 inhibition reporter assay (HEK-Blue, SEAP); conditions: HEK-Blue cells overexpressing human TLR9, ODN2006 5 nM stimulation
In short: (§1)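 HEK-Blue cells expressing human TLR7, TLR8 or TLR9 with NF-κB/AP-1-driven SEAP reporter; compounds 0.05 nM–50 μM, 30 min pre-treatment at room temperature. Stimulated with gardiquimod 7.5 μM (TLR7), R848 15.9 μM (TLR8) or ODN2006 5 nM (TLR9), 22 h at 37 °C; % inhibition of SEAP signal relative to agonist+DMSO and known-inhibitor wells.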

human TLR8 = human TLR8 (Homo sapiens (Human), UniProt Q9NR97); assay: TLR8 inhibition reporter assay (HEK-Blue, SEAP); conditions: HEK-Blue cells overexpressing human TLR8, R848 15.9 μM stimulation
In short: as §1

human TLR7 = human TLR7 (Homo sapiens (Human), UniProt Q9NYK1); assay: TLR7 inhibition reporter assay (HEK-Blue, SEAP); conditions: HEK-Blue cells overexpressing human TLR7, gardiquimod 7.5 μM stimulation
In short: as §1

Sequence of human TLR7 (Q9NYK1 27-1049): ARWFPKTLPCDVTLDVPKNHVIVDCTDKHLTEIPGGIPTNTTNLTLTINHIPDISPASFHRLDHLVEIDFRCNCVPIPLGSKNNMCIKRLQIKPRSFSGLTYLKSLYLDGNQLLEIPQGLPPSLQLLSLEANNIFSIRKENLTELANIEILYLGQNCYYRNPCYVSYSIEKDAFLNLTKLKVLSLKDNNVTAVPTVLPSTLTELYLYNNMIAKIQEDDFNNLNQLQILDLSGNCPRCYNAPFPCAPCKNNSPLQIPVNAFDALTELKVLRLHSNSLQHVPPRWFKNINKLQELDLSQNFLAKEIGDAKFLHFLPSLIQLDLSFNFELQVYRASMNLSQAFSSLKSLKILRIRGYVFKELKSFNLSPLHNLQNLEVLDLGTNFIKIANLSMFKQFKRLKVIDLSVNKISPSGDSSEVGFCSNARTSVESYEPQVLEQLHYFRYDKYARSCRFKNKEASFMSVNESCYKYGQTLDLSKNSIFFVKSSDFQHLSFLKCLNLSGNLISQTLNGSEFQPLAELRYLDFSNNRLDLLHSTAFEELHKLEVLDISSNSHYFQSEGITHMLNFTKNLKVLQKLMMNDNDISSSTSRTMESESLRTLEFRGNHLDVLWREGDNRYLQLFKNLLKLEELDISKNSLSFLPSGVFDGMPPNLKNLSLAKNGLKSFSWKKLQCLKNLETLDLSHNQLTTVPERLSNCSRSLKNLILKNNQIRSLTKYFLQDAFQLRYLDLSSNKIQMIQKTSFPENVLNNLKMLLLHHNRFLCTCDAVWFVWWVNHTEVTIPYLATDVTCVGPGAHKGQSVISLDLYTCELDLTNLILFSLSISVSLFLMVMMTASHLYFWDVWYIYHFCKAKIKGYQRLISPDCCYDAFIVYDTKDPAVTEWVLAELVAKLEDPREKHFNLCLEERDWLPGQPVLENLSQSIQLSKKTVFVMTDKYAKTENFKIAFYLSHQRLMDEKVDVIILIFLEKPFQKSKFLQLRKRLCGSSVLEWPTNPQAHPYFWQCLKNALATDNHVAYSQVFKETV
Sequence of human TLR8 (Q9NR97 27-1041): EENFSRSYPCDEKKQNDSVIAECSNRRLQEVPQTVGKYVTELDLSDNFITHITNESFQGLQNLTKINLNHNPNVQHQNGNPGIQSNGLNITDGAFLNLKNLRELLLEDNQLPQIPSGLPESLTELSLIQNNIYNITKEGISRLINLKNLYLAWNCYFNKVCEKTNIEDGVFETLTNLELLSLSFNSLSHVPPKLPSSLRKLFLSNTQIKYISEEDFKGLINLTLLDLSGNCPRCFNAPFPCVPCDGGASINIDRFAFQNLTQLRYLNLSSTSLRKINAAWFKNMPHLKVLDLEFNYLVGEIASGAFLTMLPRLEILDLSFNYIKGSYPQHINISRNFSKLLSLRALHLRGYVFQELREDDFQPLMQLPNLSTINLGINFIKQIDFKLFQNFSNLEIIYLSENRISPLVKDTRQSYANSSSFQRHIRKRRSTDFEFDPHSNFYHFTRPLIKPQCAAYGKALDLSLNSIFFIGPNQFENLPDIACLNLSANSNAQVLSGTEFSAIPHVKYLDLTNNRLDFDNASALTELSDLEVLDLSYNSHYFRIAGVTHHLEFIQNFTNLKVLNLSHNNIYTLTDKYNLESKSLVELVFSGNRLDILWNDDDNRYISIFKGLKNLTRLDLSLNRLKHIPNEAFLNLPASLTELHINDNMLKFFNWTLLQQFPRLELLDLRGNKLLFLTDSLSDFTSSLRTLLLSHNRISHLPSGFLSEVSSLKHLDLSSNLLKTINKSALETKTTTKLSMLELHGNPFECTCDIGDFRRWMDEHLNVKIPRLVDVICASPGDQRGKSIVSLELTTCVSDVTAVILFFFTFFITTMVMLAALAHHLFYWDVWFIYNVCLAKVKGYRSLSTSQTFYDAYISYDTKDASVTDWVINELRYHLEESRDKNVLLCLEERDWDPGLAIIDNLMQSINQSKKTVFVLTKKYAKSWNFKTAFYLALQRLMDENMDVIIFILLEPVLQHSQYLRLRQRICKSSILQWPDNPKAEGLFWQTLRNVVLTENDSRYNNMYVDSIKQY
Sequence of human TLR9 (Q9NR96 26-1032): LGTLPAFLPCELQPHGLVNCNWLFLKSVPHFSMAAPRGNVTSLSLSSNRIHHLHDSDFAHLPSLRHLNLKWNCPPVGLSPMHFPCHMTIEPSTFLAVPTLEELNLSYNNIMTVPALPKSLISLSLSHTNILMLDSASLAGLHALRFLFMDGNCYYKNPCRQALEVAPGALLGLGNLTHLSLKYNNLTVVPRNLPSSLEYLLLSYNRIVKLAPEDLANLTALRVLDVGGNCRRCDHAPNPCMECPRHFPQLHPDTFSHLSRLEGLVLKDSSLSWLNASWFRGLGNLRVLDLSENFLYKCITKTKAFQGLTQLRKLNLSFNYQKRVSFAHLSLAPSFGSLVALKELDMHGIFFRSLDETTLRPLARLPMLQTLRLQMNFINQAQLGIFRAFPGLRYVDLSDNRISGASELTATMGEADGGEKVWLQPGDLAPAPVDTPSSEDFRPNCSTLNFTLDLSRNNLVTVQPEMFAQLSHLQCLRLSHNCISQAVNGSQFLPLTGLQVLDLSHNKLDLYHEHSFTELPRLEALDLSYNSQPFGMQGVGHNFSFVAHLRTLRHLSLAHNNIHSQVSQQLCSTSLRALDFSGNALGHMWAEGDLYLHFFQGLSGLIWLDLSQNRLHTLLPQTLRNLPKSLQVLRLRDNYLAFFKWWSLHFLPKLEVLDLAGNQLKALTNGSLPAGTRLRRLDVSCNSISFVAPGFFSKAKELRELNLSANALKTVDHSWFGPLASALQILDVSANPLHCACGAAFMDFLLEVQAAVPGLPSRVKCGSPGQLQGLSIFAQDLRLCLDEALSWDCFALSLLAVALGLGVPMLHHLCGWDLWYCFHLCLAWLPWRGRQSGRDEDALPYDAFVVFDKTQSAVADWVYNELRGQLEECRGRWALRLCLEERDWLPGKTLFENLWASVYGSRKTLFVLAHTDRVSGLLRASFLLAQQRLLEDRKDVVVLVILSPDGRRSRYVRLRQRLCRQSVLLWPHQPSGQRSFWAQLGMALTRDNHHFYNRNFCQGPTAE

Row | SMILES | IC50 (human TLR9) | IC50 (human TLR8) | IC50 (human TLR7)
1 | COc1ccc(-c2[nH]c3ccc(-c4nnc(C(=O)N5CCC(O)CC5)o4)cc3c2C(C)C)cc1OC [Example 91, (5-(2-(3,4-dimethoxyphenyl)-3-isopropyl-1H-indol-5-yl)-1,3,4-oxadiazol-2-yl)(4-hydroxypiperidin-1-yl)methanone] | > 50 µM | 0.111 µM | 0.348 µM
2 | COc1ccc(-c2[nH]c3ccc(-c4nnc(C(=O)N5CCN(C(C)=O)CC5)o4)cc3c2C(C)C)cc1OC [Example 92, 1-(4-(5-(2-(3,4-dimethoxyphenyl)-3-isopropyl-1H-indol-5-yl)-1,3,4-oxadiazole-2-carbonyl)piperazin-1-yl)ethan-1-one] | 26.3 µM | 0.109 µM | 0.561 µM
3 | COc1ccc(-c2[nH]c3ccc(-c4nnc(C(=O)N5CCCN(C)CC5)o4)cc3c2C(C)C)cc1OC [Example 93, (5-(2-(3,4-dimethoxyphenyl)-3-isopropyl-1H-indol-5-yl)-1,3,4-oxadiazol-2-yl)(4-methyl-1,4-diazepan-1-yl)methanone] | 2.02 µM | 0.015 µM | 0.086 µM
4 | COc1ccc(-c2[nH]c3ccc(-c4nnc(C(=O)N(C)CCc5ccccn5)o4)cc3c2C(C)C)cc1OC [Example 94, 5-(2-(3,4-dimethoxyphenyl)-3-isopropyl-1H-indol-5-yl)-N-methyl-N-(2-(pyridin-2-yl)ethyl)-1,3,4-oxadiazole-2-carboxamide] | 13.1 µM | 0.222 µM | 0.181 µM
5 | COc1ccc(-c2[nH]c3ccc(-c4nnc(C(=O)N5CCC(N6CCCC6)CC5)o4)cc3c2C(C)C)cc1OC [Example 95, (5-(2-(3,4-dimethoxyphenyl)-3-isopropyl-1H-indol-5-yl)-1,3,4-oxadiazol-2-yl)(4-(pyrrolidin-1-yl)piperidin-1-yl)methanone] | 1.4 µM | 0.021 µM | 0.099 µM
6 | COc1ccc(-c2[nH]c3ccc(-c4nnc(C(=O)N(C)CCCN(C)C)o4)cc3c2C(C)C)cc1OC [Example 96, 5-(2-(3,4-dimethoxyphenyl)-3-isopropyl-1H-indol-5-yl)-N-(3-(dimethylamino)propyl)-N-methyl-1,3,4-oxadiazole-2-carboxamide] | 1.22 µM | 0.0046 µM | 0.049 µM
7 | COc1ccc(-c2[nH]c3ccc(-c4nnc(C(=O)N5CCN(c6cnccn6)CC5)o4)cc3c2C(C)C)cc1OC [Example 97, (5-(2-(3,4-dimethoxyphenyl)-3-isopropyl-1H-indol-5-yl)-1,3,4-oxadiazol-2-yl)(4-(pyrazin-2-yl)piperazin-1-yl)methanone] | > 50 µM | 0.239 µM | 0.936 µM
8 | COc1ccc(-c2[nH]c3ccc(-c4nnc(C(=O)N5CC[C@H](N(C)C)C5)o4)cc3c2C(C)C)cc1OC [Example 98, (S)-(5-(2-(3,4-dimethoxyphenyl)-3-isopropyl-1H-indol-5-yl)-1,3,4-oxadiazol-2-yl)(3-(dimethylamino)pyrrolidin-1-yl)methanone] | 2.66 µM | 0.017 µM | 0.068 µM
9 | COc1ccc(-c2[nH]c3ccc(-c4nnc(C(=O)N5CCC(N6CCOCC6)C5)o4)cc3c2C(C)C)cc1OC (stereo not drawn) [Example 99, (5-(2-(3,4-dimethoxyphenyl)-3-isopropyl-1H-indol-5-yl)-1,3,4-oxadiazol-2-yl)(3-morpholinopyrrolidin-1-yl)methanone] | 16.3 µM | 0.086 µM | 0.565 µM
10 | COc1ccc(-c2[nH]c3ccc(-c4nnc(C(=O)NCCNC(C)=O)o4)cc3c2C(C)C)cc1OC [Example 100, N-(2-acetamidoethyl)-5-(2-(3,4-dimethoxyphenyl)-3-isopropyl-1H-indol-5-yl)-1,3,4-oxadiazole-2-carboxamide] | > 50 µM | 0.031 µM | 0.844 µM
11 | COc1ccc(-c2[nH]c3ccc(-c4nnc(C(=O)NCCCn5ccnc5)o4)cc3c2C(C)C)cc1OC [Example 101, N-(3-(1H-imidazol-1-yl)propyl)-5-(2-(3,4-dimethoxyphenyl)-3-isopropyl-1H-indol-5-yl)-1,3,4-oxadiazole-2-carboxamide] | 3.29 µM | 0.014 µM | 0.055 µM
